The text below walks through data of PubChem BioAssay AID296 (DTP/NCI, 2004).

Structures are written as SMILES. Values joined by “and” are separate entries in the source; they are usually repeats but may differ in a detail not shown here. Equal entries are not always repeated. Records with an inconclusive call do not appear.

In this assay the test system is MX-1 breast xenograft, nude mice, tumor weight T/C. The experiment in a line: NCI In Vivo Anticancer Drug Screen. Data for tumor model Human Mammary Carcinoma MX-1 Xenograft (intrarenal inoculation) in NU/NU Swiss (nude) mice. Particulars: endpoint: mean tumor weight change, higher = larger tumour. The protocol:
The antitumor activity of compounds was measured in mice bearing transplantable tumors. Survival or tumor size were measured and the results are expressed as the measurement made in the treated group (T) divided by the measurement made in the vehicle treated control group (C). The tumor model used in this assay is Human Mammary Carcinoma MX-1 Xenograft (intrarenal inoculation) in NU/NU Swiss (nude) mice
On the technique in general: In xenograft studies the graft and the host belong to different species.

Setting [1] is: dose: 25.0 mg/kg/injection, schedule: Q01DX010 (sc), vehicle: Klucel (hydroxypropylcellulose) (HPC).
[2] abbreviates: dose: 100.0 mg/kg/injection, schedule: Q01DX010 (sc), vehicle: Klucel (hydroxypropylcellulose) (HPC).
The mark [3] stands for this setting: dose: 300.0 mg/kg/injection, schedule: Q04DX003 (sc), vehicle: saline with Tween-80.
Setting [4] is: dose: 600.0 mg/kg/injection, schedule: Q04DX003 (sc), vehicle: saline with Tween-80.
Setting [5] is: dose: 1200.0 mg/kg/injection, schedule: Q04DX003 (sc), vehicle: saline with Tween-80.
[6] abbreviates: dose: 50.0 mg/kg/injection, schedule: Q01DX010 (sc), vehicle: saline.
Where [7] appears, read: dose: 300.0 mg/kg/injection, schedule: Q04DX003 (sc), vehicle: Klucel (hydroxypropylcellulose) (HPC).

For `Nc1ccccc1N`, the T/C by setting is: under setting [1], 103 % of control; under setting [2], 80 % of control and 211 % of control; (dose: 200.0 mg/kg/injection, schedule: Q01DX010 (sc), vehicle: Klucel (hydroxypropylcellulose) (HPC)) 34 % of control and 47 % of control.

As to `CC(=O)[O][Pb]([O]C(C)=O)([c]1ccccc1)[c]1ccccc1`, the T/C is 105 % of control under setting [1]; 167 % of control (dose: 50.0 mg/kg/injection, schedule: Q01DX010 (sc), vehicle: Klucel (hydroxypropylcellulose) (HPC)); 122 % of control under setting [2]; 51 % of control (dose: 800.0 mg/kg/injection, schedule: Q01DX010 (sc), vehicle: Klucel (hydroxypropylcellulose) (HPC)).

As for `COc1ccc(OC)c(/C=C/c2ccnc3ccccc23)c1`, the T/C is 96 % of control (dose: 150.0 mg/kg/injection, schedule: Q04DX003 (sc), vehicle: saline with Tween-80); 91 % of control under setting [3]; 96 % of control under setting [4]; 96 % of control under setting [5].

For `COC1C(N)C(OC2C(Oc3cccc4c(O)c5c(=O)oc6ccc(C)c7c(=O)oc(c34)c5c67)OC(C)C(O)C2(C)O)OC(C)C1O` (stereo not drawn), the T/C (dose: 2.5 mg/kg/injection, schedule: Q04DX003 (ip), vehicle: lactic acid) was 51 % of control; the T/C (dose: 5.0 mg/kg/injection, schedule: Q04DX003 (ip), vehicle: lactic acid) is 49 % of control; the T/C (dose: 10.0 mg/kg/injection, schedule: Q04DX003 (ip), vehicle: lactic acid) is 9 % of control.

Regarding `CCC(C)Nc1ccc(N)cc1` (stereo not drawn), the T/C by setting is: (dose: 4.5 mg/kg/injection, schedule: Q04DX003 (sc), vehicle: Klucel (hydroxypropylcellulose) (HPC)) 50 % of control; (dose: 18.0 mg/kg/injection, schedule: Q04DX003 (sc), vehicle: Klucel (hydroxypropylcellulose) (HPC)) 76 % of control.

As for `COC12C(COC(N)=O)C3=C(C(=O)C(C)=C(N)C3=O)N1CC1C2N1C` (stereo not drawn), the T/C (dose: 8.0 mg/kg/injection, schedule: Q01DX010 (sc), vehicle: saline) is -96 % of control and -95 % of control.

As to `OCC1(CO)COC2(CCCCC2)N1`, the T/C is 107 % of control under setting [6]; 75 % of control (dose: 200.0 mg/kg/injection, schedule: Q01DX010 (sc), vehicle: saline); 83 % of control (dose: 200.0 mg/kg/injection, schedule: Q01DX010 (sc), vehicle: suspension in saline); 56 % of control (dose: 400.0 mg/kg/injection, schedule: Q01DX010 (sc), vehicle: suspension in saline); 63 % of control (dose: 800.0 mg/kg/injection, schedule: Q01DX010 (sc), vehicle: suspension in saline); 105 % of control (dose: 1600.0 mg/kg/injection, schedule: Q01DX010 (sc), vehicle: suspension in saline).

With `ClCCCN1CCN(CCCCl)CC1`, the T/C reads like this: (dose: 75.0 mg/kg/injection, schedule: Q04DX003 (sc), vehicle: saline + alcohol) 113 % of control; (dose: 150.0 mg/kg/injection, schedule: Q04DX003 (sc), vehicle: saline + alcohol) 28 % of control.

On to `[N-]=[N+]=CC(=O)CCC(=O)C=[N+]=[N-]`, for which the T/C was -72 % of control (dose: 3.0 mg/kg/injection, schedule: Q01DX010 (sc), vehicle: DMSO); -42 % of control (dose: 6.0 mg/kg/injection, schedule: Q01DX010 (sc), vehicle: DMSO); 5 % of control (dose: 12.0 mg/kg/injection, schedule: Q01DX010 (sc), vehicle: DMSO); 6 % of control (dose: 15.0 mg/kg/injection, schedule: Q04DX003 (sc), vehicle: DMSO); 23 % of control (dose: 15.0 mg/kg/injection, schedule: Q04DX003 (sc), vehicle: saline); 3 % of control (dose: 30.0 mg/kg/injection, schedule: Q04DX003 (sc), vehicle: DMSO). Further, the T/C by setting is: (dose: 30.0 mg/kg/injection, schedule: Q04DX003 (sc), vehicle: saline) 16 % of control; (dose: 60.0 mg/kg/injection, schedule: Q04DX003 (sc), vehicle: saline) 6 % of control; (dose: 120.0 mg/kg/injection, schedule: Q04DX003 (sc), vehicle: DMSO) -13 % of control; (dose: 120.0 mg/kg/injection, schedule: Q04DX003 (sc), vehicle: saline) 8 % of control.

As to `O=S(=O)(O)O`, the T/C runs as follows: (dose: 75.0 mg/kg/injection, schedule: Q04DX003 (sc), vehicle: Klucel (hydroxypropylcellulose) (HPC)) 86 % of control; (dose: 150.0 mg/kg/injection, schedule: Q04DX003 (sc), vehicle: Klucel (hydroxypropylcellulose) (HPC)) 94 % of control; under setting [7], 85 % of control.

For `COC1/C=C/O[C@@]2(C)Oc3c(C)c(O)c4c(O)c(cc(O)c4c3C2=O)NC(=O)/C(C)=C\C=C\[C@H](C)C(O)[C@@H](C)[C@@H](O)[C@@H](C)[C@H](OC(C)=O)[C@@H]1C` (stereo partly drawn), the T/C runs as follows: (dose: 600.0 mg/kg/injection, schedule: Q04DX003 (sc), vehicle: suspension in saline) 153 % of control; (dose: 2400.0 mg/kg/injection, schedule: Q04DX003 (sc), vehicle: suspension in saline) 150 % of control.

In the case of `C/C(=N/NC(N)=S)c1ccc2ccccc2c1`, the T/C (dose: 25.0 mg/kg/injection, schedule: Q01DX010 (sc), vehicle: saline with Tween-80) was 75 % of control; the T/C (dose: 50.0 mg/kg/injection, schedule: Q01DX010 (sc), vehicle: saline with Tween-80) was 81 % of control; the T/C (dose: 100.0 mg/kg/injection, schedule: Q01DX010 (sc), vehicle: saline with Tween-80) is 29 % of control.

Turning to `CCC1=C2C(=O)c3ccccc3C2=C(C)S(=O)(=O)O1`, the T/C reads like this: under setting [3], 122 % of control; under setting [4], 104 % of control; under setting [5], 106 % of control.

Turning to `Nc1cc(Cl)c2[nH]cnc2n1`, the T/C is 47 % of control (dose: 200.0 mg/kg/injection, schedule: Q04DX003 (sc), vehicle: water); 42 % of control (dose: 400.0 mg/kg/injection, schedule: Q04DX003 (sc), vehicle: water); 55 % of control (dose: 800.0 mg/kg/injection, schedule: Q04DX003 (sc), vehicle: water).

Take `CC1(C)OC1CS(=O)c1ccccc1` (stereo not drawn): the T/C under setting [4] was 121 % of control.

`C[C@]12CCC(=O)C=C1CC[C@@H]1[C@@H]2C(=O)C[C@@]2(C)[C@H]1CC[C@]2(O)C(=O)CO`: the T/C by setting is: under setting [7], 108 % of control; (dose: 600.0 mg/kg/injection, schedule: Q04DX003 (sc), vehicle: Klucel (hydroxypropylcellulose) (HPC)) 45 % of control.

`CC1=C(O)C(=O)[C@@H]2O[C@@H]2C1=O`: the T/C was 86 % of control (dose: 2.35 mg/kg/injection, schedule: Q04DX003 (sc), vehicle: saline); 82 % of control (dose: 4.69 mg/kg/injection, schedule: Q04DX003 (sc), vehicle: saline); 119 % of control (dose: 9.38 mg/kg/injection, schedule: Q04DX003 (sc), vehicle: saline); 63 % of control (dose: 18.75 mg/kg/injection, schedule: Q04DX003 (sc), vehicle: saline).

In the case of `ClCCCN1CCCCC1CCl` (stereo not drawn), the T/C by setting is: (dose: 12.5 mg/kg/injection, schedule: Q04DX003 (sc), vehicle: saline) 51 % of control; (dose: 25.0 mg/kg/injection, schedule: Q04DX003 (sc), vehicle: saline) 1 % of control; (dose: 50.0 mg/kg/injection, schedule: Q04DX003 (sc), vehicle: saline) 3 % of control.

For `CNC(=O)OCc1nc(SC)n(C)c1COC(=O)NC`, the T/C runs as follows: (dose: 50.0 mg/kg/injection, schedule: Q04DX003 (ip), vehicle: saline) 8 % of control; (dose: 100.0 mg/kg/injection, schedule: Q04DX003 (ip), vehicle: saline) 3 % of control; (dose: 200.0 mg/kg/injection, schedule: Q04DX003 (ip), vehicle: saline) -56 % of control.

Consider `CCN(CC)CCNc1ccc(C)c2sc3ccccc3c(=O)c12`, for which the T/C runs as follows: under setting [6], 79 % of control; (dose: 100.0 mg/kg/injection, schedule: Q01DX010 (sc), vehicle: saline) 53 % of control.

On to `COc1ccc2c(NCCCCCCCCNc3c4ccccc4nc4cc(OC)ccc34)c3ccccc3nc2c1`, for which the T/C by setting is: (dose: 8.0 mg/kg/injection, schedule: Q04DX003 (sc), vehicle: suspension in saline) 68 % of control; (dose: 16.0 mg/kg/injection, schedule: Q04DX003 (sc), vehicle: suspension in saline) 78 % of control; (dose: 32.0 mg/kg/injection, schedule: Q04DX003 (sc), vehicle: suspension in saline) 104 % of control; (dose: 64.0 mg/kg/injection, schedule: Q04DX003 (sc), vehicle: suspension in saline) 92 % of control.
